Source: US20220340579A1, “PYRAZOLYL BICYCLIC AMINES AS CDK2 INHIBITORS” (Incyte Corporation, priority 2021, published 2022)
pIC50: −log10 of the molar value.

Target: T1, CDK2/Cyclin E1 (Homo sapiens, UniProt P24941)
T1 construct: enzyme activity assays utilize full-length human CDK2; GST (N); purchased Carna 04-165; host or cells: baculovirus expression system
Experiment: CDK2/Cyclin E1 HTRF enzyme activity assay
Assay type: biochemical
Conditions: 1 mM ATP
Description: Example A. CDK2/Cyclin E1 HTRF Enzyme Activity Assay
CDK2/Cyclin E1 enzyme activity assays utilize full-length human CDK2 co-expressed as N-terminal GST-tagged protein with FLAG-Cyclin E1 in a baculovirus expression system (Carna Product Number 04-165). Assays were conducted in white 384-well polystyrene plates in a final reaction volume of 8 μL. CDK2/Cyclin E1 (0.25 nM) was incubated with the compounds of the Examples (40 nL serially diluted in DMSO) in the presence of ATP (50 μM or 1 mM) and 50 nM ULight™-labeled eIF4E-binding protein 1 (THR37/46) peptide (PerkinElmer) in assay buffer (containing 50 mM HEPES pH 7.5, 1 mM EGTA, 10 mM MgCl2, 2 mM DTT, 0.05 mg/mL BSA, and 0.01% Tween 20) for 60 minutes at room temperature. The reactions were stopped by the addition of EDTA and Europium-labeled anti-phospho-4E-BP1 antibody (PerkinElmer), for a final concentration of 15 mM and 1.5 nM, respectively. HTRF signals were read after 1 hour at room temperature on a PHERAstar FS plate reader (BMG Labtech). Data was analyzed with IDBS XLFit and GraphPad Prism 5.0 software using a three or four parameter dose response curve to determine IC50 for each compound.

| Compound | pIC50 |
| --- | --- |
| C[C@@H]1CN(S(C)(=O)=O)CC[C@@H]1Nc1nc2cnc(-c3cn[nH]c3)c(OCC(F)(F)F)n2n1 [Example 3, N-((3R,4S)-3-Methyl-1-(methylsulfonyl)piperidin-4-yl)-6-(1H-pyrazol-4-yl)-5-(2,2,2-trifluoroethoxy)-[1,2,4]triazolo[1,5-a]pyrazin-2-amine] | ≥ 8.00 |
| C[C@@H]1CN(S(C)(=O)=O)CC[C@@H]1Nc1nc2c(OCC(F)(F)F)c(-c3cn[nH]c3)ncn2n1 [Example 2, N-((3R,4S)-3-Methyl-1-(methylsulfonyl)piperidin-4-yl)-7-(1H-pyrazol-4-yl)-8-(2,2,2-trifluoroethoxy)-[1,2,4]triazolo[1,5-c]pyrimidin-2-amine] | ≥ 8.00 |
| C[C@@H]1CN(S(C)(=O)=O)CC[C@@H]1Nc1nc2c(OC3CCC3)c(-c3cn[nH]c3)ncn2n1 [Example 1, 8-Cyclobutoxy-N-((3R,4S)-3-methyl-1-(methylsulfonyl)piperidin-4-yl)-7-(1H-pyrazol-4-yl)-[1,2,4]triazolo[1,5-c]pyrimidin-2-amine] | ≥ 8.00 |
